Assay results taken from the NIST ThermoML archive (doi:10.1016/j.jct.2017.01.001).
Numbers after ± are expanded uncertainties.

Test: wn = mass fraction of the nth substance listed
Conditions: 100 kPa, Liquid, Pycnometric method

SMILES	mass density (323.15 K, w1 = 0.323)	mass density (343.15 K, w1 = 0.3141)	mass density (363.15 K, w1 = 0.3071)	mass density (323.15 K, w1 = 0.5495)	mass density (343.15 K, w1 = 0.5753)	mass density (363.15 K, w1 = 0.5961)
O=C([O-])[O-].[Na+].[Na+] [sodium carbonate] + O	1323.5 ± 20 kg/m3	1310.2 ± 20 kg/m3	1268.7 ± 20 kg/m3	–	–	–
O=C([O-])[O-].[K+].[K+] [potassium carbonate] + O	–	–	–	1583.2 ± 20 kg/m3	1594.3 ± 20 kg/m3	1626.5 ± 20 kg/m3
